Source: ChEMBL document CHEMBL5465560, “Selectivity Literature for EUbOPEN Chemogenomic Library” (2024)

Key:
[1] = molecular target: Phosphatidylinositol 4-kinase beta (Homo sapiens, UniProt Q9UBF8); test: Selectivity interaction (ActivX KiNativ screen (kinase selectivity in THP-1 cell lysates)) EUB0000639a PI4KB; type: subcellular; settings: lysate, at 0.2 µM
[2] = molecular target: T1, G protein-coupled receptor kinase 3 (Homo sapiens) (UniProt P35626); test: Selectivity interaction (Kinase panel (Z-LYTE Assay)) EUB0001632a ADRBK2; settings: at 10 µM
T1 sequence (whole entry): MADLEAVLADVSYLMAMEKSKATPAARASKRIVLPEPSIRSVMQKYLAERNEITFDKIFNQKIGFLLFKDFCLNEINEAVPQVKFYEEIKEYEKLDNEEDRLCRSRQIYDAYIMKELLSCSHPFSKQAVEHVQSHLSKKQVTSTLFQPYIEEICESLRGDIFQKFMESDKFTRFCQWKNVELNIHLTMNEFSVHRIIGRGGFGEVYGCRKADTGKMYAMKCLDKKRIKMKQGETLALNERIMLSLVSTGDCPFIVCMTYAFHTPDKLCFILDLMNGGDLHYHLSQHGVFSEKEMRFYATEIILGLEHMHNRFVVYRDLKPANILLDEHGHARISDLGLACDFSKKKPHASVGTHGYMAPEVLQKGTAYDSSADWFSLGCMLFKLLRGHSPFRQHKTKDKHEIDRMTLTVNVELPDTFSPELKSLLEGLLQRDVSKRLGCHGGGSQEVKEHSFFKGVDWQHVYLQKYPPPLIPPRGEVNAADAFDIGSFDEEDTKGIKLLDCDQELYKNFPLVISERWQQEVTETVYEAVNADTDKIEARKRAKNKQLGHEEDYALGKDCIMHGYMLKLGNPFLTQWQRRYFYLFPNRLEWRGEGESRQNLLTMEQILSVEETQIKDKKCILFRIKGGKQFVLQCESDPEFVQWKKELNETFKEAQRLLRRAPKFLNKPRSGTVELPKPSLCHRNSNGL

[3] = molecular target: T2, Cyclin-dependent kinase 11A (Homo sapiens) (UniProt Q9UQ88); test: Selectivity interaction (KinomeScan (DiscoverX)) EUB0000229b CDK11A; settings: at 10 µM
T2 sequence (whole entry): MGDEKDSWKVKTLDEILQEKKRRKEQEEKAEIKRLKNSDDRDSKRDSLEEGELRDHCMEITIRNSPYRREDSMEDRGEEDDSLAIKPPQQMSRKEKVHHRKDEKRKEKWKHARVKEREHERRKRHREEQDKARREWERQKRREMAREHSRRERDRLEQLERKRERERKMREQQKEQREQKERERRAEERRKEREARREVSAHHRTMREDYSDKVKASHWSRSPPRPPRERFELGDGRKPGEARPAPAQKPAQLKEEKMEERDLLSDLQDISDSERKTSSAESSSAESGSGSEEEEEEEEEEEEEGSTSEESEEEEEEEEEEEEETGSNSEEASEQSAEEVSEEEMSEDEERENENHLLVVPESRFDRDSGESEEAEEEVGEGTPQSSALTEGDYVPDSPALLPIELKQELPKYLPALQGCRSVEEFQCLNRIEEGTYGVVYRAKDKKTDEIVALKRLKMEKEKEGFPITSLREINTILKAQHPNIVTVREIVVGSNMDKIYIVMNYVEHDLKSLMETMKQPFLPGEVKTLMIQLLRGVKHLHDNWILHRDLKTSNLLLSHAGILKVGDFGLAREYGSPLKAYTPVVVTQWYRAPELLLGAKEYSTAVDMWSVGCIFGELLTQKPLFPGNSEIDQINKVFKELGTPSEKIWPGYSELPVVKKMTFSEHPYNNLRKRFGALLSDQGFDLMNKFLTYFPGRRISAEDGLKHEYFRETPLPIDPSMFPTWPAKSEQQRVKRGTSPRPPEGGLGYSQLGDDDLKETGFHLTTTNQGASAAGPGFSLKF

[4] = molecular target: T3, Uncharacterized serine/threonine-protein kinase SBK3 (Homo sapiens) (UniProt P0C264); test: Selectivity interaction (KinomeScan (DiscoverX)) EUB0000229b SBK3; settings: at 10 µM
T3 sequence (whole entry): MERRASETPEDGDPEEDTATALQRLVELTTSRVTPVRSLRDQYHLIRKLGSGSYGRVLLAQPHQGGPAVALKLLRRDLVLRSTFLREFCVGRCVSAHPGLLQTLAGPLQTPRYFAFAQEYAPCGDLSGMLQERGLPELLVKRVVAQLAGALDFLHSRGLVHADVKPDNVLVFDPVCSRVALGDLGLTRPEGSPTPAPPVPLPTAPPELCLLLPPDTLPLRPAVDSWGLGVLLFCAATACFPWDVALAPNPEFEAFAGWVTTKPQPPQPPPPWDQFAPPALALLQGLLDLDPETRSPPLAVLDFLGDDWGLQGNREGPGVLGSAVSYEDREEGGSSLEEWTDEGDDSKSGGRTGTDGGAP

[5] = molecular target: Platelet-derived growth factor receptor alpha (Homo sapiens, UniProt P16234); test: Selectivity interaction (KinomeScan (DiscoverX)) EUB0000045b PDGFRA
Chain of Platelet-derived growth factor receptor alpha (P16234 whole entry): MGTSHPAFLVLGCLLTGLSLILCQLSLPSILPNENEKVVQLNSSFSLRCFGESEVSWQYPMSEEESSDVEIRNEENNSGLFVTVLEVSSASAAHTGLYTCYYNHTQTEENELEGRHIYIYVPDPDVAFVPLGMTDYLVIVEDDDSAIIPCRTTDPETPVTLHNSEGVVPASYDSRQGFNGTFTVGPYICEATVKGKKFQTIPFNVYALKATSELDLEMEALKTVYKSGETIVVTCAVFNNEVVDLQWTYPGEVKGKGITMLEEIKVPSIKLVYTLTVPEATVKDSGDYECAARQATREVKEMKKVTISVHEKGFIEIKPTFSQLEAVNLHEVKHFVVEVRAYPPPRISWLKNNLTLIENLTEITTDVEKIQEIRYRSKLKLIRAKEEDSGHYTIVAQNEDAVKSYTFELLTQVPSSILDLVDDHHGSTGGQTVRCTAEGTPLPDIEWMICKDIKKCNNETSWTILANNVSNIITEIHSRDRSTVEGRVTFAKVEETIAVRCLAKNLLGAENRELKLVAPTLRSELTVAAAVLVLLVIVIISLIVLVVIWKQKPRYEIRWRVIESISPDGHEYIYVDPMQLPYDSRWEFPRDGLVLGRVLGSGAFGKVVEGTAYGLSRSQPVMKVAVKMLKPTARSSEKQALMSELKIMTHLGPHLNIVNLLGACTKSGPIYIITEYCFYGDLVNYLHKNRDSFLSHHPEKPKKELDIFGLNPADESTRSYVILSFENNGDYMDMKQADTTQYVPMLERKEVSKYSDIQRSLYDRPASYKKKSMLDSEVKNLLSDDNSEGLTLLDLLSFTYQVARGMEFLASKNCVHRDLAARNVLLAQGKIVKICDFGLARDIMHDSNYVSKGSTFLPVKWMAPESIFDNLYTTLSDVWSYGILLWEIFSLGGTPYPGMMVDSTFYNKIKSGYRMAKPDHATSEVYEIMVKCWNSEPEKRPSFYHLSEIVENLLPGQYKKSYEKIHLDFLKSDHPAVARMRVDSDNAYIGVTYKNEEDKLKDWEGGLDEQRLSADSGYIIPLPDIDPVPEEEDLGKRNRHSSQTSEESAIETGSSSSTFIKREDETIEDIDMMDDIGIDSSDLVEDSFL

[6] = molecular target: Serine/threonine-protein kinase PLK1 (Homo sapiens, UniProt P53350); test: Selectivity interaction (KinomeScan (DiscoverX)) EUB0000607a PLK1; settings: at 10 µM
Chain of Serine/threonine-protein kinase PLK1 (P53350 whole entry): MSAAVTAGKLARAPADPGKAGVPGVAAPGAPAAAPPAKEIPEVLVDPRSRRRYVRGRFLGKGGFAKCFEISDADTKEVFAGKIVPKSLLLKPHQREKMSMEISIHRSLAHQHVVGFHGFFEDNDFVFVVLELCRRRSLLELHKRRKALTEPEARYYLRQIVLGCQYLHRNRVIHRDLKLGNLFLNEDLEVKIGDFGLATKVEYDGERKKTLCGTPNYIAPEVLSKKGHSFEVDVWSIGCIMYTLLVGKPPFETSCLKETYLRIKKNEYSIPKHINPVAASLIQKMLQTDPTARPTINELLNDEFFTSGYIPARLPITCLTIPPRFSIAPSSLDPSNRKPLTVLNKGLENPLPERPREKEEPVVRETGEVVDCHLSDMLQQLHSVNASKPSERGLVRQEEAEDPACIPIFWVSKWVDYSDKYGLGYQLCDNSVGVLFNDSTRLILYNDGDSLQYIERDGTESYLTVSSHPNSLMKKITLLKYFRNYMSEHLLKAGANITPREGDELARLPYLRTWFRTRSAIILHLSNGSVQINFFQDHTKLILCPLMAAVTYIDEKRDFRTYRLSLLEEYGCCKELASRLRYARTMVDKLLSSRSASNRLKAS

[7] = molecular target: T4, Phosphatidylinositol 5-phosphate 4-kinase type-2 gamma (Homo sapiens) (UniProt Q8TBX8); test: Selectivity interaction (Kinase panel (KiNativ target engagement assay in Jurkat cells)) EUB0001635a PIP4K2C; type: cell-based; settings: Selectivity number of off-targets 0.0, Selectivity number of targets 233.0, Source Knowledge https://www.sciencedirect.com/science/article/pii/S2451945619300674?via%3Dihub, at 1 µM
T4 sequence (whole entry): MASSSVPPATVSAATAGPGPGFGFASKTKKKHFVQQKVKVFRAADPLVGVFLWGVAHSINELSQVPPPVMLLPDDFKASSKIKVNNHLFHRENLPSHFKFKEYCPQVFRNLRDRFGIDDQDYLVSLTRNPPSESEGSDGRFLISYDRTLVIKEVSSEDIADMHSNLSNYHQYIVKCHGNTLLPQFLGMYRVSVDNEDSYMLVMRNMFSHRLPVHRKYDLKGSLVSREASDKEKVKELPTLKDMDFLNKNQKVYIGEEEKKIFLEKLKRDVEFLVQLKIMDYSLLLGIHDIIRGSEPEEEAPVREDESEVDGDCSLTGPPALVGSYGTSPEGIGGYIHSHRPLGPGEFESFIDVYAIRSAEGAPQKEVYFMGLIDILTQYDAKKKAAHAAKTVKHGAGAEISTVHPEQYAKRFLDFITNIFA

Chain of Phosphatidylinositol 4-kinase beta (Q9UBF8 2-816 limits assumed): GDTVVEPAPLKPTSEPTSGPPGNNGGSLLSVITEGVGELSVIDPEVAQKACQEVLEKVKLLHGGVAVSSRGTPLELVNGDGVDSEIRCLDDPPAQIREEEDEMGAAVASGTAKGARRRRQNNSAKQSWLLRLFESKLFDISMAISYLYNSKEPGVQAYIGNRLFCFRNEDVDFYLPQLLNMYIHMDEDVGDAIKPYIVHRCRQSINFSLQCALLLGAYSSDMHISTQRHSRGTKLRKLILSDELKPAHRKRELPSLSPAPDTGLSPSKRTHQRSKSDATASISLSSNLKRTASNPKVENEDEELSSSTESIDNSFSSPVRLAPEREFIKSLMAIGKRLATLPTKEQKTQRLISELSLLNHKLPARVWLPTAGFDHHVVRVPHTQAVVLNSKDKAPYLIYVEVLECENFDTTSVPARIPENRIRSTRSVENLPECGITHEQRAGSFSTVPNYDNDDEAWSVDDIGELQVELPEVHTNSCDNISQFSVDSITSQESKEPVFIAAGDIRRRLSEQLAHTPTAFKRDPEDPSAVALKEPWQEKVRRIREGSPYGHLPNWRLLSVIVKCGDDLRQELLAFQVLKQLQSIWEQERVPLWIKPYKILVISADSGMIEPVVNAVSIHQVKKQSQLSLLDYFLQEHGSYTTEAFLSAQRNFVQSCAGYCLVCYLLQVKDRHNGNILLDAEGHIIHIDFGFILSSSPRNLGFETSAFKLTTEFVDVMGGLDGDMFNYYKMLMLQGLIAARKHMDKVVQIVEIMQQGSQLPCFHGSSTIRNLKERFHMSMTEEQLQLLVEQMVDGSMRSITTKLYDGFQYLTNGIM

CC[C@@H]1[C@H](F)C(=O)N[C@@H]1COc1nccc2cc(C(N)=O)c(OC)cc12 [ZIMLOVISERTIB]
% of inhibition [1]: -16.4%

Cn1cc(-n2cnc3c(NCc4nc5cc(Cl)c(Cl)cc5[nH]4)nc(N4CCOCC4)nc32)cn1
% of control [2]: -1.17%

COc1cc(N(C)c2ccnc3ccc(C(F)(F)F)cc23)cc(OC)c1OC
% binding [3]: 97% | % binding [4]: 100%

C=CC(=O)Nc1cc(-n2c(=O)ccc3cnc4ccc(-c5ccc(NS(C)(=O)=O)cc5)cc4c32)ccc1C
% of control ([5]; at 1 µM): 92% | % of control ([5]; at 10 µM): 100%

CNC(=O)Nc1ccc(-c2nc(N3CC4CCC(C3)O4)c3cnn(C4CCC5(CC4)OCCO5)c3n2)cc1
% of control [6]: 77%

C=CC(=O)Nc1ccc(C(=O)Nc2[nH]nc3c2CN(C(=O)N[C@H](CN(C)C)c2ccccc2)C3(C)C)cc1
% of engagement [7]: -2.5%
